Laboratory results as given in patent EP4778922A1, “BICYCLIC COMPOUND, AND PREPARATION METHOD THEREFOR AND PHARMACEUTICAL USE THEREOF” (Shanghai Jeyou Pharmaceutical Co., Ltd., priority 2023, dated 2025).
Where two headings read alike, the source gives them in different places.

Key:
[1] = Mouse pharmacokinetic test; format: in vivo, ICR mice; conditions: plasma; for Tmax: read-out: Tmax; for bioavailability: PO-30mpk vs IV-0.5mpk
In short: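 Male naive ICR mice (25–30 g, n=3 per route) received a single intravenous or oral dose, with feeding resumed 4 h post-dose. Blood was centrifuged at 4°C, and plasma was stored at -80°C until analysis.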

LNCaP cells = test: Cell proliferation inhibition assay in LNCaP cells (0.2 nM DHT, CellTiter-Glo, 7 days); format: cell-based, human; conditions: Homo sapiens, LNCaP, 168 h
In short: (§1)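 22RV1 cells received compound alone; LNCaP cells were stimulated with 0.2 nM DHT added 1 h after compound. Seeding was 3000 cells/well.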

[2] = molecular target: T1, CYP3A4 (testosterone/midazolam) (Homo sapiens, UniProt P08684); test: CYP inhibition assay in human liver microsomes; format: in vitro ADME
T1 construct: co-incubated with human liver microsomes; from tissue; host or cells: human liver microsomes
Procedure: (§2) Test Example 3: CYP Inhibition Assay
(§3) An in vitro assay system was used to evaluate the effects of the compounds on the activities of several human liver microsomal cytochrome P450 (CYP) isozymes (CYP1A2, CYP2C9, CYP2D6, CYP3A4 (testosterone/midazolam), CYP2C19, and CYP2C8). Specific probe substrates for CYP450 isozymes were co-incubated with human liver microsomes and the compound at various concentrations (0, 0.0300, 0.100, 0.300, 1.00, 3.00, 10.0 µM). The reaction was initiated by adding the coenzyme NADPH. After the reaction was completed, the samples were processed, and the metabolites generated from the probe substrates were detected by liquid chromatography-tandem mass spectrometry (LC-MS/MS). Based on the resulting dose-response curves, the IC50 values of the test compounds for the probe substrate reactions catalyzed by each CYP isozyme were calculated.

CYP2C8 = molecular target: T2, CYP2C8 (Homo sapiens, UniProt P10632); test: CYP inhibition assay in human liver microsomes; format: in vitro ADME
T2 construct: co-incubated with human liver microsomes; from tissue; host or cells: human liver microsomes
T2 sequence (P10632 1-490): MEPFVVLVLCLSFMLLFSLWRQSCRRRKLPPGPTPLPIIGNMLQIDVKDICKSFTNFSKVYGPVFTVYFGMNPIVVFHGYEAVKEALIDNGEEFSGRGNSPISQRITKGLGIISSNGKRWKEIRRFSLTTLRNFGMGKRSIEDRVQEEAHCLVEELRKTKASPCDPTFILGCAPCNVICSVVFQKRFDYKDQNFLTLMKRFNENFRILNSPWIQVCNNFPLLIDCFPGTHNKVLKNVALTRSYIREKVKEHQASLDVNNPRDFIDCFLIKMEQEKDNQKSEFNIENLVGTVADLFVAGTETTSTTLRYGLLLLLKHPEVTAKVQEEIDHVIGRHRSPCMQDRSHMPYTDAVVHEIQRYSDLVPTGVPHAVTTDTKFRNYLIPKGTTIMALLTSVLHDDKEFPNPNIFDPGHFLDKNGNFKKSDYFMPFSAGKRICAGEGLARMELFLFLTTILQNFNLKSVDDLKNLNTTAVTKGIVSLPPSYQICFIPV
Procedure: as §2, §3

CYP2C19 = molecular target: T3, CYP2C19 (Homo sapiens, UniProt P33261); test: CYP inhibition assay in human liver microsomes; format: in vitro ADME
T3 construct: co-incubated with human liver microsomes; from tissue; host or cells: human liver microsomes
Procedure: as §2, §3

CYP2C9 = molecular target: T4, CYP2C9 (Homo sapiens, UniProt P11712); test: CYP inhibition assay in human liver microsomes; format: in vitro ADME
T4 construct: co-incubated with human liver microsomes; from tissue; host or cells: human liver microsomes
Procedure: as §2, §3

CYP1A2 = molecular target: T5, CYP1A2 (Homo sapiens, UniProt P05177); test: CYP inhibition assay in human liver microsomes; format: in vitro ADME
T5 construct: co-incubated with human liver microsomes; from tissue; host or cells: human liver microsomes
T5 sequence (P05177 1-516): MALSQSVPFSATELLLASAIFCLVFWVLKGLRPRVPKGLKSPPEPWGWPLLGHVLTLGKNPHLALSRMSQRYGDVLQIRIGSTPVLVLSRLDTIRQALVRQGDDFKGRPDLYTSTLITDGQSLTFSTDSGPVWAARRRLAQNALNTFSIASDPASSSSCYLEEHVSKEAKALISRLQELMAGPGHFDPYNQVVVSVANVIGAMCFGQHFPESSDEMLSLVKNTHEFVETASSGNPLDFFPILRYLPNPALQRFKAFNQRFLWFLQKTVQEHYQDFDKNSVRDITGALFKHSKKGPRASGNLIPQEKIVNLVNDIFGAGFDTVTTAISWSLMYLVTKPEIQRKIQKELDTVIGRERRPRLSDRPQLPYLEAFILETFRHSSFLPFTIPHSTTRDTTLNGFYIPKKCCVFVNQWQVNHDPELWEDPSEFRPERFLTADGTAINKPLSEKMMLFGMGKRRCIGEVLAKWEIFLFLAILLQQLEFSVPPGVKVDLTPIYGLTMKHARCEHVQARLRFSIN
Procedure: as §2, §3

CYP2D6 = molecular target: T6, CYP2D6 (Homo sapiens, UniProt P10635); test: CYP inhibition assay in human liver microsomes; format: in vitro ADME
T6 construct: co-incubated with human liver microsomes; from tissue; host or cells: human liver microsomes
Procedure: as §2, §3

22RV1 cells = test: Cell proliferation inhibition assay in 22RV1 cells (CellTiter-Glo, 7 days); format: cell-based, human; conditions: Homo sapiens, 22Rv1, 168 h
In short: as §1

[3] = probe substrate midazolam, read-out: CYPs 3A4 (Midazolam) (IC50)
[4] = probe substrate testosterone, read-out: CYPs 3A4 (Testosterone) (IC50)
[5] = human liver microsomes, NADPH, read-out: CYPs 2C8 (IC50)
[6] = human liver microsomes, NADPH, read-out: CYPs 2C19 (IC50)
[7] = human liver microsomes, NADPH, read-out: CYPs 2C9 (IC50)
[8] = human liver microsomes, NADPH, read-out: CYPs 1A2 (IC50)
[9] = human liver microsomes, NADPH, read-out: CYPs 2D6 (IC50)

T4 sequence (P11712 whole entry): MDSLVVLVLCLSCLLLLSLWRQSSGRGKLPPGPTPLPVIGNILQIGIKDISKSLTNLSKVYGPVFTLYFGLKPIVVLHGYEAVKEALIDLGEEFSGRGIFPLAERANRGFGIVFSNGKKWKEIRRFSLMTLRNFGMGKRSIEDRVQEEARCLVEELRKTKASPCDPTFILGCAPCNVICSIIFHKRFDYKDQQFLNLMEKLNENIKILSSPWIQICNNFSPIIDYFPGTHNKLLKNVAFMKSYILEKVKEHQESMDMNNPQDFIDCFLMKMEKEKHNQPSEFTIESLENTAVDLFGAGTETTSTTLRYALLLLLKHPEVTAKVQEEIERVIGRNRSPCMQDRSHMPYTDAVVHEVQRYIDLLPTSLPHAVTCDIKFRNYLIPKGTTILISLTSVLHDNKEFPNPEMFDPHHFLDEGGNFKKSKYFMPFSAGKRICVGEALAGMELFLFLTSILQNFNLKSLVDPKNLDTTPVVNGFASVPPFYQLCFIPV
T3 sequence (P33261 whole entry): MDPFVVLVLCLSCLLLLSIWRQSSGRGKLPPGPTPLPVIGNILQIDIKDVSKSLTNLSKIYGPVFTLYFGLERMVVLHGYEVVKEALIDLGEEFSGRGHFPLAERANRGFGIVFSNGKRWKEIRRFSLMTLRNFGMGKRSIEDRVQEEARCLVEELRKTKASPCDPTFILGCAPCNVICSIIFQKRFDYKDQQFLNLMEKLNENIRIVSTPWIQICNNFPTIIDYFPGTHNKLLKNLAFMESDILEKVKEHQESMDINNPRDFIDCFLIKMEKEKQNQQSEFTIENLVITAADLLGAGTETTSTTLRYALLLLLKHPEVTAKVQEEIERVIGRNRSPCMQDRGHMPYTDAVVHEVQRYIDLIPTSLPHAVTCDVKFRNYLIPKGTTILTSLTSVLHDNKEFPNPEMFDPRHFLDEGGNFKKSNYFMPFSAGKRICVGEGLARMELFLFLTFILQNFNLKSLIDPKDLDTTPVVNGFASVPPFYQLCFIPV
T6 sequence (P10635 whole entry): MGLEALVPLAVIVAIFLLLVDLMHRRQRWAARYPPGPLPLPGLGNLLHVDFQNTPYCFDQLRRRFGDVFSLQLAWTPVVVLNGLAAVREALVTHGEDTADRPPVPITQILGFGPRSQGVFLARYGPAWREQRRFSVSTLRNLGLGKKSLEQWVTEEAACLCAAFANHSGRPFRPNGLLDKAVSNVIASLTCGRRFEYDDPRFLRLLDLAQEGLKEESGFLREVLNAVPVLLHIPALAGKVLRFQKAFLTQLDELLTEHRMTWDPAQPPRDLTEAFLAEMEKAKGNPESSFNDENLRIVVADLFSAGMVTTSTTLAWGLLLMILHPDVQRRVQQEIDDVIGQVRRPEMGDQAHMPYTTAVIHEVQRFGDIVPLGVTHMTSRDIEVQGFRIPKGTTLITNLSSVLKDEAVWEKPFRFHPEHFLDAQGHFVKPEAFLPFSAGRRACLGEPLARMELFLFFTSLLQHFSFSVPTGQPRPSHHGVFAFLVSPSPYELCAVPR
T1 sequence (P08684 whole entry): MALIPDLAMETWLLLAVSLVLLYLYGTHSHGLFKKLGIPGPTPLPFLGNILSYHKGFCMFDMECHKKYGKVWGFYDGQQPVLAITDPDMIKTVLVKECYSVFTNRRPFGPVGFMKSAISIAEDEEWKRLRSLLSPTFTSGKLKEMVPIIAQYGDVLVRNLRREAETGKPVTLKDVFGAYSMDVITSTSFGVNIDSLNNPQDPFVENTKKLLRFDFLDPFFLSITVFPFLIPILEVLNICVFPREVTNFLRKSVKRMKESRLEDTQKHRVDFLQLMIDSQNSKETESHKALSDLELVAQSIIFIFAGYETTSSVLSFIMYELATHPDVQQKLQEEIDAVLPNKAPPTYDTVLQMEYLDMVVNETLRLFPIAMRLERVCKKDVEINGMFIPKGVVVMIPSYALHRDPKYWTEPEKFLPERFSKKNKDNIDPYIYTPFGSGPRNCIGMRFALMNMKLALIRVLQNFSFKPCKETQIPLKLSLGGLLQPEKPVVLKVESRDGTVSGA

SMILES: CC(C)(c1ccc(-c2cnc(OCc3ccnc(N4CC([S@](C)(=N)=O)C4)n3)cn2)cc1)c1cc(Cl)c(OCCCl)c(C#N)c1 (single isomer, unassigned) [Compound 323A]
- AUC(0-inf) ([1]; po, 30 mg/kg, PO-30mpk): 1390 µg·h/mL
- Cmax ([1]; po, 30 mg/kg, PO-30mpk): 131000 ng/mL
- half-life ([1]; po, 30 mg/kg, PO-30mpk): 5.94 h
- Tmax ([1]; po, 30 mg/kg, PO-30mpk): 3.3 h
- IC50 (LNCaP cells): 0.58 µM
- IC50 [2, 3]: > 10 µM
- IC50 [2, 4]: > 10 µM
- IC50 (CYP2C8; [5]): > 10 µM
- IC50 (CYP2C19; [6]): > 10 µM
- IC50 (CYP2C9; [7]): 8 µM
- IC50 (CYP1A2; [8]): > 10 µM
- IC50 (CYP2D6; [9]): > 10 µM

SMILES: CC(C)(c1ccc(-c2cnc(OCc3ccnc(N4CC([S@@](C)(=N)=O)C4)n3)cn2)cc1)c1cc(Cl)c(OCCCl)c(C#N)c1 (single isomer, unassigned) [Compound 323B]
- AUC(0-inf) ([1]; po, 30 mg/kg, PO-30mpk): 1180 µg·h/mL
- Cmax ([1]; po, 30 mg/kg, PO-30mpk): 108000 ng/mL
- half-life ([1]; po, 30 mg/kg, PO-30mpk): 6.05 h
- Tmax ([1]; po, 30 mg/kg, PO-30mpk): 2.7 h
- IC50 (LNCaP cells): 0.58 µM
- IC50 [2, 3]: > 10 µM
- IC50 [2, 4]: > 10 µM
- IC50 (CYP2C8; [5]): > 10 µM
- IC50 (CYP2C19; [6]): > 10 µM
- IC50 (CYP2C9; [7]): 2.9 µM
- IC50 (CYP1A2; [8]): > 10 µM
- IC50 (CYP2D6; [9]): > 10 µM

SMILES: CC(C)(c1ccc(-c2ccc(OCc3ccnc(P(C)(C)=O)n3)cc2)cc1)c1cc(Cl)c(OCCCl)c(C#N)c1 [Compound 2]
- C0 ([1]; 0.5 mg/kg, IV-0.5mpk): 1200 ng/mL
- clearance ([1]; 0.5 mg/kg, IV-0.5mpk): 1.09 mL/min/kg
- bioavailability ([1]; 30 mg/kg): 135%
- AUC(0-inf) ([1]; iv, 0.5 mg/kg, IV-0.5mpk): 7.65 µg·h/mL
- half-life ([1]; iv, 0.5 mg/kg, IV-0.5mpk): 8.9 h
- AUC(0-inf) ([1]; po, 30 mg/kg, PO-30mpk): 619 µg·h/mL
- Cmax ([1]; po, 30 mg/kg, PO-30mpk): 31700 ng/mL
- half-life ([1]; po, 30 mg/kg, PO-30mpk): 12 h
- Tmax ([1]; po, 30 mg/kg, PO-30mpk): 3.3 h
- IC50 [2, 3]: > 10 µM
- IC50 [2, 4]: > 10 µM
- IC50 (CYP2C19; [6]): > 10 µM
- IC50 (CYP2C9; [7]): 6.9 µM
- IC50 (CYP1A2; [8]): > 10 µM
- IC50 (CYP2D6; [9]): > 10 µM
- IC50 (22RV1 cells): 0.77 µM

SMILES: CC(C)(c1ccc(-c2ccc3oc(-c4ccnc(P(C)(C)=O)n4)c(N)c3c2)cc1)c1cc(Cl)c(OCCCl)c(C#N)c1 [Compound 56]
- C0 ([1]; 0.5 mg/kg, IV-0.5mpk): 6190 ng/mL
- clearance ([1]; 0.5 mg/kg, IV-0.5mpk): 1.02 mL/min/kg
- bioavailability ([1]; 30 mg/kg): 55.6%
- AUC(0-inf) ([1]; iv, 0.5 mg/kg, IV-0.5mpk): 8.3 µg·h/mL
- half-life ([1]; iv, 0.5 mg/kg, IV-0.5mpk): 6.1 h
- AUC(0-inf) ([1]; po, 30 mg/kg, PO-30mpk): 277 µg·h/mL
- Cmax ([1]; po, 30 mg/kg, PO-30mpk): 29600 ng/mL
- half-life ([1]; po, 30 mg/kg, PO-30mpk): 8.57 h
- Tmax ([1]; po, 30 mg/kg, PO-30mpk): 3.33 h
- IC50 ([2]; CYPs 3A4 (Midazolam) (IC50), probe substrate midazolam): > 10 µM
- IC50 ([2]; CYPs 3A4 (Testosterone) (IC50), probe substrate testosterone): > 10 µM
- IC50 (CYP2C8): > 10 µM
- IC50 (CYP2C19): > 10 µM
- IC50 (CYP2C9): > 10 µM
- IC50 (CYP1A2): > 10 µM
- IC50 (CYP2D6): > 10 µM
- IC50 (22RV1 cells): 0.27 µM

SMILES: CC(C)(c1ccc(-c2cnc(OCc3ccnc(N4CC(S(C)(=O)=O)C4)n3)cn2)cc1)c1cc(Cl)c(OCCCl)c(C#N)c1 [Compound 262]
- C0 ([1]; 0.5 mg/kg, IV-0.5mpk): 1790 ng/mL
- clearance ([1]; 0.5 mg/kg, IV-0.5mpk): 0.55 mL/min/kg
- bioavailability ([1]; 30 mg/kg): 71.2%
- AUC(0-inf) ([1]; iv, 0.5 mg/kg, IV-0.5mpk): 15.2 µg·h/mL
- half-life ([1]; iv, 0.5 mg/kg, IV-0.5mpk): 10.8 h
- AUC(0-inf) ([1]; po, 30 mg/kg, PO-30mpk): 648 µg·h/mL
- Cmax ([1]; po, 30 mg/kg, PO-30mpk): 74700 ng/mL
- half-life ([1]; po, 30 mg/kg, PO-30mpk): 5.2 h
- Tmax ([1]; po, 30 mg/kg, PO-30mpk): 2 h
- IC50 (LNCaP cells): 0.34 µM
- IC50 [2, 3]: > 10 µM
- IC50 [2, 4]: > 10 µM
- IC50 (CYP2C8; [5]): > 10 µM
- IC50 (CYP2C19; [6]): > 10 µM
- IC50 (CYP2C9; [7]): 8.3 µM
- IC50 (CYP1A2; [8]): > 10 µM
- IC50 (CYP2D6; [9]): > 10 µM
- IC50 (22RV1 cells): 0.14 µM

SMILES: CC(C)(c1ccc(-c2cnc(OCc3ccnc(N4CC5(CCS5(=O)=O)C4)n3)cn2)cc1)c1cc(Cl)c(OCCCl)c(C#N)c1 [Compound 376]
- AUC(0-inf) ([1]; po, 30 mg/kg, PO-30mpk): 2300 µg·h/mL
- Cmax ([1]; po, 30 mg/kg, PO-30mpk): 131000 ng/mL
- half-life ([1]; po, 30 mg/kg, PO-30mpk): 23 h
- Tmax ([1]; po, 30 mg/kg, PO-30mpk): 4 h
- IC50 (LNCaP cells): 0.1 µM
- IC50 [2, 3]: > 10 µM
- IC50 [2, 4]: > 10 µM
- IC50 (CYP2C8; [5]): > 10 µM
- IC50 (CYP2C19; [6]): > 10 µM
- IC50 (CYP2C9; [7]): > 10 µM
- IC50 (22RV1 cells): 0.27 µM
